Format in all cases: in vivo
In one test the test system is Digitaria sanguinalis. The experiment in a line: Post-emergence test experiment, Digitaria sanguinalis. The conditions noted are these: 1000 g a.i./ha, 3 weeks in greenhouse, fresh weight inhibition. On the procedure:
(§1) The above described growth inhibition rate is fresh weight inhibition rate.
(§2) Post-emergence test experiment: Monocotyledonous and dicotyledonous weed seeds and main crop seeds (i. e. wheat, corn, rice, soybean, cotton, oilseed, millet and sorghum.) were put into a plastic pot loaded with soil. Then covered with 0.5-2 cm soil, the seeds were allowed to grow in good greenhouse environment. The test plants were treated at 2-3 leaf stage 2 weeks after sowing. The test compounds of the invention were dissolved with acetone respectively, then added with tween-80, and using 1.5 liters per hectare of an emulsible concentrate of methyl oleate as a synergist, and diluted by certain amount of water to certain concentration. The solution was sprayed to the plants with a sprayer. Then the plants were cultured for 3 weeks in the greenhouse, and the experiment result of weed controlling effect was listed in tables 4-5.

Another test has as its system Echinochloa crusgalli. The experiment in a line: Post-emergence test experiment, Echinochloa crusgalli. The conditions noted are these: for Activity level (growth inhibition rate), Echinochloa crusgalli: 1000 g a.i./ha, 3 weeks in greenhouse, fresh weight inhibition. As for the experimental part: as §1, §2
Test [1] relates to Monocotyledonous and dicotyledonous weed seeds and main crop seeds. The experiment in a line: Post-emergence test experiment, other weeds and crops (Table 4, 1000 g a.i./ha). As to conditions: 3 weeks in greenhouse, fresh weight inhibition. On the procedure: as §1
as §2, with “sprayer.” for “sprayer. Then the plants were cultured for 3 weeks in the greenhouse, and the experiment result of weed controlling effect was listed in tables 4-5.”

For `CC(Oc1nc(F)c(Cl)c(N)c1Cl)C(=O)OC1CC1` (stereo not shown) [Compound 2-263], the “Activity level (growth inhibition rate), Digitaria sanguinalis” value in the test with Digitaria sanguinalis is 5 (Level 5: the growth inhibition rate is greater than 85%). In the test with Echinochloa crusgalli, the “Activity level (growth inhibition rate), Echinochloa crusgalli” value was 5 (Level 5: the growth inhibition rate is greater than 85%). Besides, in test [1], the “Activity level (growth inhibition rate), Abutilon theophrasti Medic.” value was 5 (Level 5: the growth inhibition rate is greater than 85%); the “Activity level (growth inhibition rate), Galium aparine” value is 5 (Level 5: the growth inhibition rate is greater than 85%); the “Activity level (growth inhibition rate), Monochoria Vaginalis” value is listed as 5 (Level 5: the growth inhibition rate is greater than 85%).

For `CC(Oc1nc(F)c(Cl)c(N)c1Cl)C(=O)OCc1ccc(Br)cc1` (stereo not shown) [Compound 2-324], the “Activity level (growth inhibition rate), Digitaria sanguinalis” value in the test on Digitaria sanguinalis is given as 5 (Level 5: the growth inhibition rate is greater than 85%). Moreover, the “Activity level (growth inhibition rate), Echinochloa crusgalli” value in the test with Echinochloa crusgalli is listed as 5 (Level 5: the growth inhibition rate is greater than 85%). In addition, in test [1], the “Activity level (growth inhibition rate), Abutilon theophrasti Medic.” value was 5 (Level 5: the growth inhibition rate is greater than 85%); the “Activity level (growth inhibition rate), Galium aparine” value is on record as 5 (Level 5: the growth inhibition rate is greater than 85%); the “Activity level (growth inhibition rate), Monochoria Vaginalis” value is listed as 5 (Level 5: the growth inhibition rate is greater than 85%).

For the compound `CC(Oc1nc(F)c(Cl)c(N)c1Cl)C(=O)OCc1cccc(F)c1` (stereo not shown) [Compound 2-310], the “Activity level (growth inhibition rate), Digitaria sanguinalis” value in the test with Digitaria sanguinalis is given as 5 (Level 5: the growth inhibition rate is greater than 85%). The “Activity level (growth inhibition rate), Echinochloa crusgalli” value in the test with Echinochloa crusgalli is 5 (Level 5: the growth inhibition rate is greater than 85%). In test [1], the “Activity level (growth inhibition rate), Abutilon theophrasti Medic.” value was 5 (Level 5: the growth inhibition rate is greater than 85%); the “Activity level (growth inhibition rate), Galium aparine” value is 5 (Level 5: the growth inhibition rate is greater than 85%); the “Activity level (growth inhibition rate), Monochoria Vaginalis” value was 5 (Level 5: the growth inhibition rate is greater than 85%).

Turning to `CC(Oc1nc(F)c(Cl)c(N)c1Cl)C(=O)O.CCC(N)(CO)CO` (stereo not shown) [Compound 2-22], the “Activity level (growth inhibition rate), Digitaria sanguinalis” value in the test with Digitaria sanguinalis is listed as 5 (Level 5: the growth inhibition rate is greater than 85%). The “Activity level (growth inhibition rate), Echinochloa crusgalli” value with Echinochloa crusgalli was 5 (Level 5: the growth inhibition rate is greater than 85%). In addition, in test [1], the “Activity level (growth inhibition rate), Abutilon theophrasti Medic.” value was 5 (Level 5: the growth inhibition rate is greater than 85%); the “Activity level (growth inhibition rate), Galium aparine” value is on record as 5 (Level 5: the growth inhibition rate is greater than 85%); the “Activity level (growth inhibition rate), Monochoria Vaginalis” value is recorded as 5 (Level 5: the growth inhibition rate is greater than 85%).

For the compound `CC(Oc1nc(F)c(Cl)c(N)c1Cl)C(=O)OC1CCCC1` (stereo not shown) [Compound 2-265], in the test on Digitaria sanguinalis, the “Activity level (growth inhibition rate), Digitaria sanguinalis” value is on record as 5 (Level 5: the growth inhibition rate is greater than 85%). Moreover, the “Activity level (growth inhibition rate), Echinochloa crusgalli” value with Echinochloa crusgalli is recorded as 5 (Level 5: the growth inhibition rate is greater than 85%). Also, in test [1], the “Activity level (growth inhibition rate), Abutilon theophrasti Medic.” value is 5 (Level 5: the growth inhibition rate is greater than 85%); the “Activity level (growth inhibition rate), Galium aparine” value is reported as 5 (Level 5: the growth inhibition rate is greater than 85%); the “Activity level (growth inhibition rate), Monochoria Vaginalis” value is 5 (Level 5: the growth inhibition rate is greater than 85%).

As for `C[C@@H](Oc1nc(F)c(Cl)c(N)c1Cl)C(=O)OCc1ccnn1C` [Compound 2-353], the “Activity level (growth inhibition rate), Digitaria sanguinalis” value in the test on Digitaria sanguinalis is recorded as 5 (Level 5: the growth inhibition rate is greater than 85%). Moreover, in the test with Echinochloa crusgalli, the “Activity level (growth inhibition rate), Echinochloa crusgalli” value is on record as 5 (Level 5: the growth inhibition rate is greater than 85%). Also, in test [1], the “Activity level (growth inhibition rate), Abutilon theophrasti Medic.” value was 5 (Level 5: the growth inhibition rate is greater than 85%); the “Activity level (growth inhibition rate), Galium aparine” value is listed as 5 (Level 5: the growth inhibition rate is greater than 85%); the “Activity level (growth inhibition rate), Monochoria Vaginalis” value is 5 (Level 5: the growth inhibition rate is greater than 85%).

Take `C[C@H](Oc1nc(F)c(Cl)c(N)c1Cl)C(=O)OCC1CCCO1` (stereo partly shown) [reference compound]: in the test with Echinochloa crusgalli (Echinochloa crus-galli, 504 h, 200 g a.i./ha, 3 weeks, weed resistant to ALS inhibitor and ACCe herbicides, read-out: Echinochloa crusgalli, activity level (growth inhibition rate)), the inhibition at 200 g/ha is 5 to 20%.

Regarding `COC(=O)C(CO)Oc1nc(F)c(Cl)c(N)c1Cl` (stereo not shown) [Compound 2-49], in test [1], the “Activity level (growth inhibition rate), Abutilon theophrasti Medic.” value is 5 (Level 5: the growth inhibition rate is greater than 85%); the “Activity level (growth inhibition rate), Galium aparine” value is reported as 5 (Level 5: the growth inhibition rate is greater than 85%); the “Activity level (growth inhibition rate), Monochoria Vaginalis” value is 5 (Level 5: the growth inhibition rate is greater than 85%).

With `COC(=O)C(Oc1nc(F)c(Cl)c(N)c1Cl)[N+](=O)[O-]` (stereo not shown) [Compound 2-50], in test [1], the “Activity level (growth inhibition rate), Abutilon theophrasti Medic.” value was 5 (Level 5: the growth inhibition rate is greater than 85%); the “Activity level (growth inhibition rate), Galium aparine” value was 5 (Level 5: the growth inhibition rate is greater than 85%); the “Activity level (growth inhibition rate), Monochoria Vaginalis” value was 5 (Level 5: the growth inhibition rate is greater than 85%).

Turning to `COC(=O)C(CF)Oc1nc(F)c(Cl)c(N)c1Cl` (stereo not shown) [Compound 2-43], in test [1], the “Activity level (growth inhibition rate), Abutilon theophrasti Medic.” value is 5 (Level 5: the growth inhibition rate is greater than 85%); the “Activity level (growth inhibition rate), Galium aparine” value was 5 (Level 5: the growth inhibition rate is greater than 85%); the “Activity level (growth inhibition rate), Monochoria Vaginalis” value is listed as 5 (Level 5: the growth inhibition rate is greater than 85%).

`NCCNCCN.Nc1c(Cl)c(F)nc(OC(C(=O)O)c2ccccc2)c1Cl` (stereo not shown) [Compound 2-15]: in test [1], the “Activity level (growth inhibition rate), Abutilon theophrasti Medic.” value was 5 (Level 5: the growth inhibition rate is greater than 85%); the “Activity level (growth inhibition rate), Galium aparine” value is 5 (Level 5: the growth inhibition rate is greater than 85%); the “Activity level (growth inhibition rate), Monochoria Vaginalis” value is recorded as 5 (Level 5: the growth inhibition rate is greater than 85%).

Regarding `COC(=O)C(Cl)Oc1nc(F)c(Cl)c(N)c1Cl` (stereo not shown) [Compound 2-53], in test [1], the “Activity level (growth inhibition rate), Abutilon theophrasti Medic.” value is on record as 5 (Level 5: the growth inhibition rate is greater than 85%); the “Activity level (growth inhibition rate), Galium aparine” value is on record as 5 (Level 5: the growth inhibition rate is greater than 85%); the “Activity level (growth inhibition rate), Monochoria Vaginalis” value is 5 (Level 5: the growth inhibition rate is greater than 85%).

For `COC(=O)C(F)Oc1nc(F)c(Cl)c(N)c1Cl` (stereo not shown) [Compound 2-51], in test [1], the “Activity level (growth inhibition rate), Abutilon theophrasti Medic.” value is listed as 5 (Level 5: the growth inhibition rate is greater than 85%); the “Activity level (growth inhibition rate), Galium aparine” value is reported as 5 (Level 5: the growth inhibition rate is greater than 85%); the “Activity level (growth inhibition rate), Monochoria Vaginalis” value was 5 (Level 5: the growth inhibition rate is greater than 85%).

Turning to `CSC(=O)C(Oc1nc(F)c(Cl)c(N)c1Cl)c1ccccc1` (stereo not shown) [Compound 2-385], in test [1], the “Activity level (growth inhibition rate), Abutilon theophrasti Medic.” value is reported as 5 (Level 5: the growth inhibition rate is greater than 85%); the “Activity level (growth inhibition rate), Galium aparine” value was 5 (Level 5: the growth inhibition rate is greater than 85%); the “Activity level (growth inhibition rate), Monochoria Vaginalis” value is on record as 5 (Level 5: the growth inhibition rate is greater than 85%).

On to `COC(=O)C(Oc1nc(F)c(Cl)c(N)c1Cl)SC` (stereo not shown) [Compound 2-57], for which, in test [1], the “Activity level (growth inhibition rate), Abutilon theophrasti Medic.” value was 5 (Level 5: the growth inhibition rate is greater than 85%); the “Activity level (growth inhibition rate), Galium aparine” value is recorded as 5 (Level 5: the growth inhibition rate is greater than 85%); the “Activity level (growth inhibition rate), Monochoria Vaginalis” value is reported as 5 (Level 5: the growth inhibition rate is greater than 85%).

Regarding `COC(=O)C(Cc1ccccc1)Oc1nc(F)c(Cl)c(N)c1Cl` (stereo not shown) [Compound 2-63], in test [1], the “Activity level (growth inhibition rate), Abutilon theophrasti Medic.” value is 5 (Level 5: the growth inhibition rate is greater than 85%); the “Activity level (growth inhibition rate), Galium aparine” value was 5 (Level 5: the growth inhibition rate is greater than 85%); the “Activity level (growth inhibition rate), Monochoria Vaginalis” value is on record as 5 (Level 5: the growth inhibition rate is greater than 85%).

Turning to `COC(=O)C(N)Oc1nc(F)c(Cl)c(N)c1Cl` (stereo not shown) [Compound 2-56], in test [1], the “Activity level (growth inhibition rate), Abutilon theophrasti Medic.” value is recorded as 5 (Level 5: the growth inhibition rate is greater than 85%); the “Activity level (growth inhibition rate), Galium aparine” value is listed as 5 (Level 5: the growth inhibition rate is greater than 85%); the “Activity level (growth inhibition rate), Monochoria Vaginalis” value is on record as 5 (Level 5: the growth inhibition rate is greater than 85%).

With `COC(=O)C(CCl)Oc1nc(F)c(Cl)c(N)c1Cl` (stereo not shown) [Compound 2-41], in test [1], the “Activity level (growth inhibition rate), Abutilon theophrasti Medic.” value was 5 (Level 5: the growth inhibition rate is greater than 85%); the “Activity level (growth inhibition rate), Galium aparine” value was 5 (Level 5: the growth inhibition rate is greater than 85%); the “Activity level (growth inhibition rate), Monochoria Vaginalis” value was 5 (Level 5: the growth inhibition rate is greater than 85%).
